Reference: US12606533B2, “3-phenylpropylamine derivative” (DAIICHI SANKYO COMPANY, LIMITED, priority 2023, dated 2026)

Experiments:
[1] = system: NCI-H295R cell subcutaneous transplant model; assay: Antitumor activity against NCI-H295R cell subcutaneous transplant model (adrenocortical carcinoma); assay type: in vivo, mouse; details: female NSG mice, oral 30 mg/kg/day QD x 10 to 11, day the test was terminated
Description: NCI-H295R cells were subcutaneously transplanted at 1.0 to 2.0×10^7 cells/head into the right flank of female NSG mice and, when the estimated tumor volume (major axis×minor axis×minor axis/2) reached 100 to 300 mm^3, the mice were divided into groups of 4 to 5 mice each such that no difference was present between groups. Female NSG mice were purchased from Charles River Japan Co., Ltd. From the day of grouping, each compound was orally administered at a dose of 30 mg/kg/day once a day for 10 to 11 consecutive days (QD×10 to 11). Individual estimated tumor volumes were measured from the day of grouping until 11 to 12 days after grouping (the day the test was terminated). To the vehicle-control group was administered 0.5% methylcellulose containing 6.2-6.4 mM mesylic acid.
The antitumor activity against the NCI-H295R cell subcutaneous transplant model in Experimental Example 5 was calculated by the following formula on the day the test was terminated.

[2] = biological target: T1, SF-1 (Homo sapiens, UniProt Q13285); assay: SF1 degradation induction in NCI-H295R SF-1-HiBiT cells (HiBiT DC50); assay type: cell-based; details: 24 hr, concentration that induces 50% degradation of SF-1
T1 construct: NCI-H295R SF-1-HiBiT cells with HiBiT tag knocked in at the endogenous SF1 locus; host or cells: NCI-H295R SF-1-HiBiT (knock-in at endogenous locus)
Method in brief: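 NCI-H295R cells carrying HiBiT-tagged SF-1, plated and grown 24 hr, then exposed to serially diluted compounds for 24 hr at 37° C. Remaining SF-1 read by lytic HiBiT luminescence; degradation rate from treated vs compound-free signal, DC50 as concentration giving 50% degradation.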

[3] = system: mouse uterus; assay: Inhibitory activity on normal mouse uterine weight (inhibitory action on estrogen activity); assay type: in vivo; details: female NSG mice, oral 100 mg/kg/day QD x 8, 24 hr after final administration, relative to vehicle control group
Description: Female NSG mice were purchased from Charles River Japan, Inc. From the day of grouping, each compound was orally administered at a dose of 100 mg/kg/day once a day for 8 consecutive days (QD×8). To the vehicle-control group was administered 0.5% methylcellulose. 24 hr after the final administration, the wet weight of the mouse uterus was measured, and the relative uterine weight (%) to the vehicle control group was calculated by the following formula.
The relative uterine weight (unit: %) of the compound corresponding to each Example No. to the vehicle control group is shown in Table 100.

[4] = system: xenograft model derived from a prostate cancer patient; assay: Antitumor activity in human prostate cancer cell subcutaneous transplant model (patient-derived xenograft); assay type: in vivo, mouse; details: male NSG mice, oral 100 mg/kg/day QD x 28 to 32, day of completion of test
Excerpt: A xenograft model derived from a prostate cancer patient (obtained from the National Institute of Biomedical Innovation (NIBIO)) was used for antitumor evaluation. Tumors excised from seed mice were cut into about 4-5 mm squares and subcutaneously transplanted into the right flank of male NSG mice. On the fourth day after transplantation, the mice were divided into groups of 8 to 10 mice each to ensure uniformity of the seed mice. From the day of grouping, each compound was orally administered once a day at a dose of 100 mg/kg/day for 28 to 32 consecutive days (QD x 28 to 32). Individual estimated tumor volumes were measured from the day of grouping until the day after the final administration (the day of completion of test). To the vehicle-control group was administered 0.5% methylcellulose containing 21.3 mM mesylic acid.
The antitumor activity in the human prostate cancer cell subcutaneous transplant model was calculated by the following formula on the day of completion of each test.

[5] = system: NCI-H295R cells; assay: Proliferation inhibitory action on NCI-H295R (CellTiter-Glo, 7 days); assay type: cell-based, human; details: Homo sapiens, NCI-H295R, 168 h
Method in brief: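 Compounds serially diluted in DMSO; cells seeded at 2×10^3 cells/well and cultured 7 days at 37° C, 5% CO2. CellTiter-Glo 2.0 luminescence read at day 0 and day 7; proliferation rate derived from compound-addition-day signal, untreated day-7 signal and treated day-7 signal.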

SMILES	tumor growth inhibition rate (%) [1]	DC50 [2]	relative uterine weight (%) [3]	tumor growth inhibition rate (%) [4]	GI50 [5]
COc1ccc([C@]2(CCN(Cc3ccc(C4=CC[C@H](CN5CCN(C(=O)c6ccc7c8c6NCCn8c(=O)n7C6CCC(=O)NC6=O)CC5)CC4)cc3)CC(C)(C)C(F)(F)F)CCOC(C)(C)C2)cc1 (stereo partly drawn) [BY7, 3-{7-[(4-{[(4R)-4′-{[{2-[(4R)-4-(4-Methoxyphenyl)-2,2-dimethyltetrahydro-2H-pyran-4-yl]ethyl)(3,3,3-trifluoro-2,2-dimethylpropyl)amino]methyl}-2,3,4,5-tetrahydro[biphenyl]-4-yl]methyl}piperazin-1-yl)carbonyl]-2-oxo-5,6-dihydro-4H-imidazo[1,5,4-de]quinoxalin-1(2H)-yl}piperidine-2,6-dione]	118%	7.3 nM	42%	38%	54 nM
COc1ccc([C@]2(CCN(Cc3ccc(C4=CC[C@H](C(=O)N5CCC(Nc6ccc7c8c6CCCn8c(=O)n7C6CCC(=O)NC6=O)CC5)CC4)c(F)c3)CC(C)(C)C(F)(F)F)CCOC(C)(C)C2)cc1 (stereo partly drawn) [BK9, 3-{7-[(1-{[(4R)-2′-Fluoro-4′-{[{2-[(4R)-4-(4-methoxyphenyl)-2,2-dimethyltetrahydro-2H-pyran-4-yl]ethyl)(3,3,3-trifluoro-2,2-dimethylpropyl)amino]methyl}-2,3,4,5-tetrahydro[biphenyl]-4-yl]carbonyl}piperidin-4-yl)amino]-2-oxo-5,6-dihydro-4H-imidazo[4,5,1-ij]quinolin-1(2H)-yl}piperidine-2,6-dione]	131%	3.2 nM	56%	43%	24 nM
COc1ccc([C@]2(CCN(Cc3ccc(C4=CC[C@H](CN5CCN(C(=O)c6ccc7c8c6CCCn8c(=O)n7C6CCC(=O)NC6=O)CC5)CC4)cc3)CC(C)(C)C(F)(F)F)CCOC(C)(C)C2)cc1 (stereo partly drawn) [AW5, 3-{7-[(4-{[(4R)-4′-{[{2-[(4R)-4-(4-Methoxyphenyl)-2,2-dimethyltetrahydro-2H-pyran-4-yl]ethyl)(3,3,3-trifluoro-2,2-dimethylpropyl)amino]methyl}-2,3,4,5-tetrahydro[biphenyl]-4-yl]methyl}piperazin-1-yl)carbonyl]-2-oxo-5,6-dihydro-4H-imidazo[4,5,1-ij]quinolin-1(2H)-yl}piperidine-2,6-dione]	109%	12 nM	74%	10%	85 nM
